From US7015228B2, “4-amino-2-(2-pyridyl)pyrimidines as microbicidal active substances” (Ciba Specialty Chemicals Corporation, priority 2001, dated 2006) come the findings set out here.

Values after ≈ are worked out from the molar mass of the structure shown. Some results are limits rather than exact numbers.

Format in all cases: cell-based
The subject of assay [1] is Escherichia coli NCTC 8196. Briefly: Minimum inhibitory concentration (MIC) in microtitre plates. Conditions: for Minimum inhibitory concentration (MIC) E. coli: Table 7, 48 hours at 37° C., MIC = ≦20% growth compared to control; for Minimum inhibitory concentration (MIC) E. coli NCTC 8196: Table 8, * = significant inhibition of growth, but not complete inhibition. The procedure, abridged: (§1)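 Compounds in DMSO, 1:2 dilution series; bacteria at 1–5×10^6 CFU/ml diluted 1:100 in CASO broth. Incubation 48 h at 37° C, growth read as OD 620 nm. MIC is the lowest concentration giving ≤20% growth relative to control; duplicates.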

In assay [2] the test system is Staphylococcus hominis DMS 20328. The assay is described as above. Conditions: Table 7; 48 hours at 37° C.; MIC = ≦20% growth compared to control. The essentials:
as §1

Assay [3] has as its system Trichophyton mentagrophytes ATCC 9533. Briefly: Minimum inhibitory concentration (MIC), further microorganisms. Conditions: Table 8; * = significant inhibition of growth, but not complete inhibition. The essentials: (§2)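 Broth microdilution in DMSO, 1:2 series; inocula adjusted to 1–5×10^6 CFU/ml then diluted 1:100 in CASO broth (bacteria, yeast) or Sabouraud 2% glucose broth (mould). Incubation 48 h at 37° C or 5 days at 28° C; MIC = lowest concentration giving ≦20% growth versus control by OD 620 nm.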

Assay [4] relates to Klebsiella pneumonia ATCC 4352. Described as above. The settings on record: Table 8; * = significant inhibition of growth, but not complete inhibition. The procedure, abridged:
as §2

Assay [5] has as its system Enterococcus hirae ATCC 10541. The assay is described as above. Conditions: Table 8; * = significant inhibition of growth, but not complete inhibition. The essentials:
as §2

The test system of assay [6] is Epidermophyton floccosum DSM 10709. The description is as above. Conditions: Table 8; * = significant inhibition of growth, but not complete inhibition. The procedure, abridged:
as §2

In assay [7] the test system is Aspergillus niger ATCC 6275. The description is as above. The settings on record: Table 8; * = significant inhibition of growth, but not complete inhibition. The procedure, abridged:
as §2

Assay [8] relates to Salmonella choleraesuis ATCC 10708. The description is as above. Conditions: Table 8. The procedure, abridged:
as §2

Assay [9] concerns S. epidermidis ATCC 12228. The assay is described as above. Conditions: Table 8; * = significant inhibition of growth, but not complete inhibition. The essentials: as §2
In assay [10] the test system is Micrococcus luteus ATCC 9341. The assay is described as above. The settings on record: Table 8; * = significant inhibition of growth, but not complete inhibition. The procedure, abridged: as §2
For assay [11], the system named is Pseudomonas aeruginosa CIP A-22. The description is as above. The settings on record: Table 8. The procedure, abridged:
as §2

The test system of assay [12] is Candida albicans ATCC 10231. The assay is described as above. Conditions: Table 8; * = significant inhibition of growth, but not complete inhibition. The essentials: as §2
Assay [13] deals with Staphylococcus aureus ATCC 9144. Described as above. The settings on record: Table 8; * = significant inhibition of growth, but not complete inhibition. The essentials:
as §2

Turning to `NCCCCCCCCCNc1cc(C(F)(F)F)nc(-c2ccccn2)n1` [compound 30], in assay [1], the “Minimum inhibitory concentration (MIC) E. coli” value worked out at 120 µg/mL (≈ 315 µM) and the “Minimum inhibitory concentration (MIC) E. coli NCTC 8196” value is more than 60 µg/mL. Besides, in assay [2], the “Minimum inhibitory concentration (MIC) S. hominis” value worked out at 120 µg/mL (≈ 315 µM). Moreover, the “Minimum inhibitory concentration (MIC) Trichophyton mentagrophytes ATCC 9533” value in assay [3] was more than 60 µg/mL. In addition, the “Minimum inhibitory concentration (MIC) Klebsiella pneumonia ATCC 4352” value in assay [4] is more than 60 µg/mL. In addition, the “Minimum inhibitory concentration (MIC) Enterococcus hirae ATCC 10541” value in assay [5] is more than 60 µg/mL. Also, in assay [6], the “Minimum inhibitory concentration (MIC) Epidermophyton floccosum DSM 10709” value was more than 60 µg/mL. The “Minimum inhibitory concentration (MIC) Aspergillus niger ATCC 6275” value in assay [7] is more than 60 µg/mL. Also, in assay [8], the “Minimum inhibitory concentration (MIC) Salmonella choleraesuis ATCC 10708” value is more than 60 µg/mL. The “Minimum inhibitory concentration (MIC) S. epidermidis ATCC 12228” value in [9] is more than 60 µg/mL. Further, the “Minimum inhibitory concentration (MIC) Micrococcus luteus ATCC 9341” value in assay [10] is 60 µg/mL (≈ 157 µM). The “Minimum inhibitory concentration (MIC) Pseudomonas aeruginosa CIP A-22” value in [11] is more than 60 µg/mL. In addition, the “Minimum inhibitory concentration (MIC) Candida albicans ATCC 10231” value in assay [12] is more than 60 µg/mL. In addition, the “Minimum inhibitory concentration (MIC) Staphylococcus aureus ATCC 9144” value in assay [13] is more than 60 µg/mL.

For `Cc1cc(NCCCCCCCCCCCCN)nc(-c2ccccn2)n1` [compound 19], in assay [1], the “Minimum inhibitory concentration (MIC) E. coli” value amounted to 60 µg/mL (≈ 162 µM) and the “Minimum inhibitory concentration (MIC) E. coli NCTC 8196” value is more than 60 µg/mL. Also, in [2], the “Minimum inhibitory concentration (MIC) S. hominis” value was found to be 15 µg/mL (≈ 40.6 µM). Also, in assay [3], the “Minimum inhibitory concentration (MIC) Trichophyton mentagrophytes ATCC 9533” value is more than 60 µg/mL. In addition, in assay [4], the “Minimum inhibitory concentration (MIC) Klebsiella pneumonia ATCC 4352” value was more than 60 µg/mL. In addition, the “Minimum inhibitory concentration (MIC) Enterococcus hirae ATCC 10541” value in assay [5] was found to be 60 µg/mL (≈ 162 µM). In addition, the “Minimum inhibitory concentration (MIC) Epidermophyton floccosum DSM 10709” value in assay [6] was more than 60 µg/mL. For the same compound, the “Minimum inhibitory concentration (MIC) Aspergillus niger ATCC 6275” value in assay [7] is more than 60 µg/mL. In addition, in assay [8], the “Minimum inhibitory concentration (MIC) Salmonella choleraesuis ATCC 10708” value is more than 60 µg/mL. Further, in [9], the “Minimum inhibitory concentration (MIC) S. epidermidis ATCC 12228” value came to 60 µg/mL (≈ 162 µM). Further, the “Minimum inhibitory concentration (MIC) Micrococcus luteus ATCC 9341” value in assay [10] stood at 7.5 µg/mL (≈ 20.3 µM). Besides, the “Minimum inhibitory concentration (MIC) Pseudomonas aeruginosa CIP A-22” value in [11] was more than 60 µg/mL. Also, the “Minimum inhibitory concentration (MIC) Candida albicans ATCC 10231” value in assay [12] came to 7.5 µg/mL (≈ 20.3 µM). In addition, in assay [13], the “Minimum inhibitory concentration (MIC) Staphylococcus aureus ATCC 9144” value turned out to be 60 µg/mL (≈ 162 µM).

Turning to `CCCCCCCCNc1cc(C)nc(-c2ccccn2)n1` [compound 21], in [1], the “Minimum inhibitory concentration (MIC) E. coli” value was 60 µg/mL (≈ 201 µM) and the “Minimum inhibitory concentration (MIC) E. coli NCTC 8196” value is 120 µg/mL (≈ 402 µM). In assay [2], the “Minimum inhibitory concentration (MIC) S. hominis” value was found to be 3.75 µg/mL (≈ 12.6 µM). In assay [3], the “Minimum inhibitory concentration (MIC) Trichophyton mentagrophytes ATCC 9533” value is more than 60 µg/mL. Moreover, the “Minimum inhibitory concentration (MIC) Klebsiella pneumonia ATCC 4352” value in assay [4] was 120 µg/mL (≈ 402 µM). For the same compound, the “Minimum inhibitory concentration (MIC) Enterococcus hirae ATCC 10541” value in [5] came to 120 µg/mL (≈ 402 µM). Further, the “Minimum inhibitory concentration (MIC) Epidermophyton floccosum DSM 10709” value in [6] is more than 60 µg/mL. The “Minimum inhibitory concentration (MIC) Aspergillus niger ATCC 6275” value in assay [7] was more than 60 µg/mL. Besides, the “Minimum inhibitory concentration (MIC) Salmonella choleraesuis ATCC 10708” value in [8] was more than 120 µg/mL. For the same compound, the “Minimum inhibitory concentration (MIC) S. epidermidis ATCC 12228” value in assay [9] turned out to be 120 µg/mL (≈ 402 µM). In addition, in [10], the “Minimum inhibitory concentration (MIC) Micrococcus luteus ATCC 9341” value turned out to be 120 µg/mL (≈ 402 µM). The “Minimum inhibitory concentration (MIC) Pseudomonas aeruginosa CIP A-22” value in assay [11] was more than 120 µg/mL. Also, the “Minimum inhibitory concentration (MIC) Candida albicans ATCC 10231” value in [12] stood at 120 µg/mL (≈ 402 µM). For the same compound, the “Minimum inhibitory concentration (MIC) Staphylococcus aureus ATCC 9144” value in [13] was found to be 120 µg/mL (≈ 402 µM).

With `COCCc1cc(NCCCCCCCCN)nc(-c2ccccn2)n1` [compound 77], in assay [1], the “Minimum inhibitory concentration (MIC) E. coli” value turned out to be 120 µg/mL (≈ 336 µM) and the “Minimum inhibitory concentration (MIC) E. coli NCTC 8196” value was more than 60 µg/mL. The “Minimum inhibitory concentration (MIC) S. hominis” value in [2] was found to be 30 µg/mL (≈ 83.9 µM). Moreover, the “Minimum inhibitory concentration (MIC) Trichophyton mentagrophytes ATCC 9533” value in assay [3] is more than 60 µg/mL. In assay [4], the “Minimum inhibitory concentration (MIC) Klebsiella pneumonia ATCC 4352” value was more than 60 µg/mL. In addition, the “Minimum inhibitory concentration (MIC) Enterococcus hirae ATCC 10541” value in assay [5] was more than 60 µg/mL. Further, the “Minimum inhibitory concentration (MIC) Epidermophyton floccosum DSM 10709” value in assay [6] is more than 60 µg/mL. In addition, the “Minimum inhibitory concentration (MIC) Aspergillus niger ATCC 6275” value in [7] was more than 60 µg/mL. For the same compound, the “Minimum inhibitory concentration (MIC) Salmonella choleraesuis ATCC 10708” value in [8] is more than 60 µg/mL. In assay [9], the “Minimum inhibitory concentration (MIC) S. epidermidis ATCC 12228” value was more than 60 µg/mL. In assay [10], the “Minimum inhibitory concentration (MIC) Micrococcus luteus ATCC 9341” value is more than 60 µg/mL. For the same compound, in assay [11], the “Minimum inhibitory concentration (MIC) Pseudomonas aeruginosa CIP A-22” value is more than 60 µg/mL. Moreover, in assay [12], the “Minimum inhibitory concentration (MIC) Candida albicans ATCC 10231” value was more than 60 µg/mL. Moreover, the “Minimum inhibitory concentration (MIC) Staphylococcus aureus ATCC 9144” value in assay [13] is more than 60 µg/mL.
